Results published in patent US20240425523A1, “Compounds for the Degradation of EGFR Kinase” (Beigene Switzerland GMBH, priority 2023, published 2024).

Assays:
Type in all cases: cell-based
[1] = target: T1, EGFR-L858R/C797S (H1975-clone #8 cells) (Homo sapiens, UniProt P00533, C797S/L858R); experiment: Cell degradation of EGFR, HTRF assay, H1975-clone#8 (L858R/C797S) cells; conditions: 16 h treatment; for DC50: EGFR degradation; for Dmax: maximum percentage of degradation
T1 construct: expressed in transfected cells; host or cells: H1975 (endogenous EGFR knocked out, clone #8)

[2] = target: T2, EGFR L858R (BaF3-L858R cells) (Homo sapiens, UniProt P00533, L858R); experiment: Cell degradation of EGFR, HTRF assay, BaF3-L858R cells; conditions: 16 h treatment; for DC50: EGFR degradation; for Dmax: maximum percentage of degradation
T2 construct: host or cells: BaF3
Summary of the method: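 EGFR L858R levels measured by HTRF antibody pair in lysed BaF3-L858R cells after 16 h compound exposure (8-point 5-fold series from 10 uM final, 37° C). Degradation is relative to DMSO-only cells; DC50 fitted with Hill equation, Dmax taken as the largest percent loss.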

[3] = target: T3, p-EGFR L858R (BaF3-L858R cells) (Homo sapiens, UniProt P00533, L858R); experiment: Cell p-EGFR inhibition assay, HTRF, BaF3-L858R cells; conditions: 16 h treatment; for Imax (%): maximum percentage of pEGFR inhibition; for IC50: pEGFR inhibition
T3 construct: host or cells: BaF3
Summary of the method: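 BaF3-L858R cells treated 16 h at 37 °C, 5% CO2 with compound from 10 uM top, 5-fold dilutions, 8 doses, in 0.1% DMSO medium. Lysates read overnight by HTRF p-EGFR antibodies; IC50 fitted to four-parameter curve against DMSO high control.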

[4] = target: p-EGFR Del19/C797S (H1975-clone #23 cells) (Homo sapiens, UniProt P00533); experiment: Cell p-EGFR inhibition assay, HTRF, H1975-clone#23 (DEL19/C797S) cells; conditions: 16 h treatment; for Imax (%): maximum percentage of pEGFR inhibition; for IC50: pEGFR inhibition
Summary of the method: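 Phospho-EGFR read by overnight HTRF on lysates, normalized to DMSO-treated high control; IC50, Hill slope and Imax fitted. Compounds were applied for 16 h (10 uM top, 5-fold steps, 8 doses) to an H1975 single clone carrying only exogenous Del19/C797S EGFR after sgRNA knockout of endogenous copies.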

DC50 [1]	Dmax [1]	DC50 [2]	Dmax [2]	Imax (%) [3]	IC50 [3]	Imax (%) [4]	IC50 [4]	SMILES
0.75 nM	77%	3.32 nM	87.3%	95.9%	7.7 nM	100.3%	0.6 nM	COC[C@@H]1CN(c2ccc3c(c2)N2CC4CC[C@H](COc5c(cnn5C)-c5cc(cc(C)n5)C(=O)/N=C/2N3)C4)CCN1C1CN(C2CCN(c3cc(F)c([C@H]4CCC(=O)NC4=O)c(F)c3)CC2)C1 [Example 108, (R)-3-(4-(4-(3-((S)-4-((7^1R,7^3S,E)-1^1,2^6-dimethyl-3-oxo-5^2,5^3-dihydro-1^1H,5^1H-9-oxa-4-aza-5(2,1)-benzo[d]imidazola-2(2,4)-pyridina-1(4,5)-pyrazola-7(1,3)-cyclopentanacyclononaphane-5^6-yl)-2-(methoxymethyl)piperazin-1-yl)azetidin-1-yl)piperidin-1-yl)-2,6-difluorophenyl)piperidine-2,6-dione]
1.64 nM	87.5%	1.75 nM	73.9%	99.7%	8 nM	101.2%	1.9 nM	COC[C@@H]1CN(c2ccc3c(c2)N2C[C@@H]4CC[C@H](COc5c(c(C)nn5C)-c5cc(cc(C)n5)C(=O)/N=C/2N3)C4)CCN1C1CCN(c2cc(F)c(C3CCC(=O)NC3=O)nc2C)CC1 (stereo partly drawn) [Example 89, 3-(3-fluoro-5-(4-((S)-2-(methoxymethyl)-4-((7^1R,7^3S,E)-1^1,1^3,2^6-trimethyl-3-oxo-5^2,5^3-dihydro-1^1H,5^1H-9-oxa-4-aza-5(2,1)-benzo[d]imidazola-2(2,4)-pyridina-1(4,5)-pyrazola-7(1,3)-cyclopentanacyclononaphane-5^6-yl)piperazin-1-yl)piperidin-1-yl)-6-methylpyridin-2-yl)piperidine-2,6-dione]
0.63 nM	82.5%	2.18 nM	88.3%	88.33%	0.871 nM	98.77%	1.69 nM	Cc1cc2cc(n1)-c1c(C)nn(C)c1OC[C@H]1CC[C@H](C1)CN1/C(=N/C2=O)Nc2ccc(N3CCC(N4CCC(Nc5cc(F)c([C@H]6CCC(=O)NC6=O)c(F)c5)CC4)CC3)cc21 (single isomer, unassigned) [Example 213]
1.92 nM	85.7%	3.18 nM	80.7%	97.6%	16.1 nM	100.1%	1 nM	Cc1cc2cc(n1)-c1cnn(C)c1OC[C@H]1CCC(C1)CN1/C(=N/C2=O)Nc2ccc(N3CCN(C4CCN(c5c(F)cc(OC6CCC(=O)NC6=O)cc5F)CC4)CC3)cc21 (stereo partly drawn) [Example 111, 3-(4-(4-(4-((7^1R,7^3S,E)-1^1,2^6-dimethyl-3-oxo-5^2,5^3-dihydro-1^1H,5^1H-9-oxa-4-aza-5(2,1)-benzo[d]imidazola-2(2,4)-pyridina-1(4,5)-pyrazola-7(1,3)-cyclopentanacyclononaphane-5^6-1)piperazin-1-yl)piperidin-1-yl)-3,5-difluorophenoxy)piperidine-2,6-dione]
1.01 nM	88.8%	2.42 nM	87.9%	89.34%	1.53 nM	99.96%	1.39 nM	Cc1cc2cc(n1)-c1c(C)nn(C)c1OC[C@H]1CC[C@H](C1)CN1/C(=N/C2=O)Nc2ccc(N3CCN(C4CCN(c5cc(F)c([C@H]6CCC(=O)NC6=O)c(F)c5)CC4)[C@H](C)C3)cc21 [Example 192, (R)-3-(2,6-difluoro-4-(4-((R)-2-methyl-4-((7^1R,7^3S,E)-1^1,1^3,2^6-trimethyl-3-oxo-5^2,5^3-dihydro-1^1H,5^1H-9-oxa-4-aza-5(2,1)-benzo[d]imidazola-2(2,4)-pyridina-1(4,5)-pyrazola-7(1,3)-cyclopentanacyclononaphane-5^6-yl)piperazin-1-yl)piperidin-1-yl)phenyl)piperidine-2,6-dione]
4.11 nM	73.5%	3.78 nM	87.7%	102.1%	11 nM	99.2%	1.4 nM	COC[C@@H]1CN(c2ccc3c(c2)N2CC4CC[C@H](COc5c(cnn5C)-c5cc(cc(C)n5)C(=O)/N=C/2N3)C4)CCN1C1CCN(c2cc(F)c(C3CCC(=O)NC3=O)nc2C)CC1 (stereo partly drawn) [Example 70, 3-(5-(4-((S)-4-((7^1R,7^3S,E)-1^1,2^6-dimethyl-3-oxo-5^2,5^3-dihydro-1^1H,5^1H-9-oxa-4-aza-5(2,1)-benzo[d]imidazola-2(2,4)-pyridina-1(4,5)-pyrazola-7(1,3)-cyclopentanacyclononaphane-5^6-yl)-2-(methoxymethyl)piperazin-1-yl)piperidin-1-yl)-3-fluoro-6-methylpyridin-2-yl)piperidine-2,6-dione]
0.748 nM	87.3%	7.26 nM	80.3%	97.8%	4.77 nM	102.03%	1.42 nM	Cc1cc2cc(n1)-c1c(C)nn(C)c1OC[C@H]1CC[C@H](C1)CN1/C(=N/C2=O)Nc2ccc(N3CCC(N(C)C4CN(c5cc(F)c([C@H]6CCC(=O)NC6=O)c(F)c5)C4)CC3)cc21 [Example 142, (R)-3-(2,6-difluoro-4-(3-(methyl(1-((7^1R,7^3S,E)-1^1,1^3,2^6-trimethyl-3-oxo-5^2,5^3-dihydro-1^1H,5^1H-9-oxa-4-aza-5(2,1)-benzo[d]imidazola-2(2,4)-pyridina-1(4,5)-pyrazola-7(1,3)-cyclopentanacyclononaphane-5^6-yl)piperidin-4-yl)amino)azetidin-1-yl)phenyl)piperidine-2,6-dione]
1.94 nM	85.6%	3.04 nM	93.3%	96.47%	6.86 nM	101.57%	1.03 nM	COC[C@H]1CN(c2ccc3c(c2)N2C[C@@H]4CC[C@H](COc5c(c(C)nn5C)-c5cc(cc(C)n5)C(=O)/N=C/2N3)C4)CCN1C1CCN(c2ccc(OC3CCC(=O)NC3=O)cc2C)CC1 (stereo partly drawn) [Example 140, 3-(4-(4-((R)-2-(methoxymethyl)-4-((7^1R,7^3S,E)-1^1,1^3,2^6-trimethyl-3-oxo-5^2,5^3-dihydro-1^1H,5^1H-9-oxa-4-aza-5(2,1)-benzo[d]imidazola-2(2,4)-pyridina-1(4,5)-pyrazola-7(1,3)-cyclopentanacyclononaphane-5^6-yl)piperazin-1-yl)piperidin-1-yl)-3-methylphenoxy)piperidine-2,6-dione]
7.29 nM	85%	8.77 nM	90.5%	91.27%	72.1 nM	100.12%	2.16 nM	COC[C@H]1CN(c2ccc3c(c2)N2C[C@H]4CC[C@@H](COc5c(c(C)nn5C)-c5cc(cc(C)n5)C(=O)/N=C/2N3)C4)CCN1C1CCN(c2cc(F)c([C@H]3CCC(=O)NC3=O)c(F)c2)CC1 [Example 150, (R)-3-(2,6-difluoro-4-(4-((R)-2-(methoxymethyl)-4-((7S,7^3R,E)-1^1,1^3,2^6-trimethyl-3-oxo-5^2,5^3-dihydro-1^1H,5^1H-9-oxa-4-aza-5(2,1)-benzo[d]imidazola-2(2,4)-pyridina-1(4,5)-pyrazola-7(1,3)-cyclopentanacyclononaphane-5^6-yl)piperazin-1-yl)piperidin-1-yl)phenyl)piperidine-2,6-dione]
